Consider 3 substances from patent US20050272692A1, “Sucrose ester compounds useful as fungicides” (priority 2004, published 2005).

The subject of assay [1] is Stachybotrys. The note with it: 1000 ppm, lab trial.
In assay [2] the test system is Rhizopus. To be noted: 1000 ppm, lab trial.
Assay [3] concerns Penicillium. The note with it: lab trial.
In assay [4] the test system is Stachybotrys chartarum. The note with it: for growth during incubation period: 144 hour incubation, all concentrations; for growth: all concentrations (400 to 2000 ppm), malt extract agar, 25° C.
The test system of assay [5] is Penicillium chrysogenum. The note with it: low concentrations, malt extract agar, 25° C., 144 hours.
Procedure: (§1) For each fungus tests were conducted on malt extract agar that was amended with five concentrations of sucrose octanoate. The control medium was standard malt extract agar. The concentrations were prepared based on 100% active ingredient. The parts per million were calculated afterwards to account for a concentration of 40% active ingredient. All fungi in the tests were incubated at 25° C. for 144 hours.
(§2) For each fungi tests were conducted on malt extract agar that was amended with five concentrations of sorbitol octanoate. The control medium was standard malt extract agar. The concentrations were prepared based on 100% active ingredient. The parts per million were calculated afterwards to account for a concentration of 40% active ingredient. All fungi in the tests were incubated at 25° C. for 144 hours.
Assay [6] deals with Aspergillus flavus. To be noted: for growth: all concentrations, malt extract agar, 25° C., 144 hours.
Procedure: as §1, §2
The subject of assay [7] is Aspergillus parasiticus. The note with it: for growth: all concentrations, malt extract agar, 25° C., 144 hours.
Procedure: as §1, §2
Assay [8] has as its system three different fungi. To be noted: 2000 ppm, lab trial.
For assay [9], the system named is Rhizopus stolonifer. The note with it: for growth during incubation period: 144 hour incubation.
Procedure: as §1, §2
Assay [10] relates to Pythium ultimum.
Assay [11] relates to Rhizoctonia solani.
The test system of assay [12] is Fusarium graminearum.
For assay [13], the system named is Alternaria sp.
The test system of assay [14] is Mucor sp.
Assay [15] relates to Stachybotrys chartarum.
Assay [16] has as its system Aspergillus niger.
Setting [17] is: 2000 ppm, d.f=2, p<0.05, unpaired one-tailed T-tests.

Like-named read-outs stand apart in the source and are kept apart here.

Take sorbitol octanoate: the growth of fungus entry in assay [1] is listed as “prevented the growth”; in assay [2], “prevented the growth”; in [3] (2000 ppm), “some growth”. Moreover, the “growth during incubation period” value in assay [4] was “No growth”. Further, the growth result in assay [4] is reported as “inhibited”; in assay [5], “able to grow, although slowly compared to the control”; in [6], “able to grow”; in assay [7], “able to grow”.

With sucrose octanoate, the growth of fungi entry in assay [8] is reported as “prevented the growth”. Besides, the growth of fungus result is recorded as “prevented the growth” in assay [1], “prevented the growth” in [2] and “some growth” in assay [3] (1000 ppm). Besides, the “growth during incubation period” value in assay [9] (all concentrations tested) is “no growth”; in assay [9] (all concentrations with the exception of 400 ppm level), “no growth”; in assay [4], “No growth”. For the same substance, the growth entry in assay [9] (all concentrations tested (400 to 2000 ppm), malt extract agar, 25° C.) is reported as “inhibited”; in [4], “inhibited”; in assay [5], “able to grow, although slowly compared to the control”; in assay [6], “able to grow”; in [7] it was “able to grow”. For the same substance, the “growth compared with control plates” value in assay [6] (setting [17]) and in assay [7] (setting [17]) was “significantly less” throughout.

“Zinc Mono-Sucrose Succinate [Compound A]”: the “reduction of radial growth” value came out at 92.3% in [10] (1000 ppm); 75.4% in assay [11] (1000 ppm); 73% in assay [12] (1000 ppm); 64.9% in assay [13] (1000 ppm); 74.4% in assay [14] (1000 ppm); 66.0% in assay [15] (1000 ppm). In addition, the “reduction of radial growth” value in assay [16] (1000 ppm) is reported as 65.6%. Moreover, the radial growth diameter is reported as 6.6 mm in assay [10] (1000 ppm, control 85 mm); 15.3 mm in assay [11] (1000 ppm, control 62.3 mm); 18.3 mm in assay [12] (1000 ppm, control 67.6 mm); 10 mm in assay [13] (1000 ppm, control 28.5 mm); 17 mm in assay [14] (1000 ppm, control 66.5 mm); 6.7 mm in assay [15] (1000 ppm, control medium 19.7 mm). Besides, the radial growth diameter in assay [16] (1000 ppm, control medium 63.0 mm) worked out at 21.7 mm. Also, the growth result in assay [10] (5000 ppm), in assay [13] (5000 ppm), in assay [14] (5000 ppm) and in assay [16] (5000 ppm) was “no significant level of growth” throughout. The growth measurement in [11] (5000 ppm, very limited growth) stood at 10 mm; in assay [15] (5000 ppm, very limited growth), 2.7 mm. The inhibition result in assay [12] (5000 ppm) is recorded as “no additional inhibition over the 1000-ppm assay”. For the same substance, the sporulation result is given as “reduced to low levels” in assay [15] (1000 ppm medium, high levels on control medium) and “high” in assay [16] (1000 ppm medium, also high on control medium).
